From US20130217664A1, “NOVEL COMPOUNDS USEFUL FOR THE TREATMENT OF DEGENERATIVE AND INFLAMMATORY DISEASES” (priority 2012, published 2013)
Read-outs that look alike come from different tables or passages of the source.

Key:
human JAK1 = target: T1, human JAK1 (Homo sapiens, UniProt P23458); assay: JAK1 inhibition assay (polyGT substrate / Ulight-JAK1 peptide); type: biochemical; conditions: recombinant human JAK1 catalytic domain; polyGT or Ulight-JAK1 peptide assay
T1 construct: catalytic domain, amino acids 866-1154; catalog number PV4774; purchased Invitrogen PV4774
T1 sequence (P23458 866-1154): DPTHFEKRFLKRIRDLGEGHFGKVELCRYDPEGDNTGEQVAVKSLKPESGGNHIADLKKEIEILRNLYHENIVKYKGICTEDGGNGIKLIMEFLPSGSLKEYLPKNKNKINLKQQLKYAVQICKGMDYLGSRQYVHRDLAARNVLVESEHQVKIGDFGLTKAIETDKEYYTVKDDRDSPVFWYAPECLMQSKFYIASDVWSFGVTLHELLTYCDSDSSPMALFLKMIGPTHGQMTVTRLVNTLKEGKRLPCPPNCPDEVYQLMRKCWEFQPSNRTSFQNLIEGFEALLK
Method in brief: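 Signal scaled between vehicle and 10 μM staurosporine. Radiometric polyGT reactions ran 45 min at 30 °C, counted after phosphoric-acid stop. Ulight peptide reactions ran 60 min at room temperature, fluorescence read after adding Eu-PT66 detection mix with EDTA.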

human JAK3 = target: T2, human JAK3 (Homo sapiens, UniProt P52333); assay: JAK3 inhibition assay; type: biochemical; conditions: recombinant human JAK3 catalytic domain; polyGT substrate
T2 construct: catalytic domain (amino acids 781-1124; catalog number PV3855); purchased Invitrogen PV3855
T2 sequence (P52333 781-1124): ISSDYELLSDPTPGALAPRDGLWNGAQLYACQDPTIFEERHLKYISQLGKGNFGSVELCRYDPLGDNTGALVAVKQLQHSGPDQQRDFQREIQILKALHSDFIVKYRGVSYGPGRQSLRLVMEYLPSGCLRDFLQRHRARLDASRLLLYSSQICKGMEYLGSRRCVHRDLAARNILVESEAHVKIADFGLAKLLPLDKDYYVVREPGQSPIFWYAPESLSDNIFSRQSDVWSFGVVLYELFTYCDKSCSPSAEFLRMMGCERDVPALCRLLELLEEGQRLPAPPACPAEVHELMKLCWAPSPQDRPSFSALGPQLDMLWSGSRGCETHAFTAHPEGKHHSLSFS
Method in brief: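 Radiometric kinase assay: 0.5 ng JAK3 with 2.5 μg polyGT in Tris pH 7.5/MgCl2 buffer, 1 μM ATP plus 0.25 μCi 33P-γ-ATP, 1% DMSO, 45 min at 30 °C, stopped with phosphoric acid.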

human TYK2 = target: T3, human TYK2 (Homo sapiens, UniProt P29597); assay: TYK2 inhibition assay; type: biochemical; conditions: recombinant human TYK2 catalytic domain, polyGT substrate
T3 construct: catalytic domain (amino acids 871-1187; catalog number 08-147); purchased Carna Biosciences 08-147
T3 sequence (P29597 871-1187): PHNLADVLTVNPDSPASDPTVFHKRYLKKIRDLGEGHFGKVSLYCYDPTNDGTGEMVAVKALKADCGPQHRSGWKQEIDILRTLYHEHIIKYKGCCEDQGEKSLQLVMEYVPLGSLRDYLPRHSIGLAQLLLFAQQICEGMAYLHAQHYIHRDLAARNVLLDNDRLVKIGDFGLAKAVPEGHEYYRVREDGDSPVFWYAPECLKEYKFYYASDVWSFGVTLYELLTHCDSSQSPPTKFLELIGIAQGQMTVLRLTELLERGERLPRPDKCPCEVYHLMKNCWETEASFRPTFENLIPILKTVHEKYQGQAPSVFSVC
Method in brief: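 Radiometric kinase reaction run 90 min at 30 °C, stopped with phosphoric acid, washed and scintillation-counted.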

[1] = test system: pSTAT1(2)-luciferase reporter in HeLa cells triggered with human OSM; assay: JAK-STAT signalling assay; type: cell-based; conditions: HeLa cells, pSTAT1(2)-luciferase reporter, human OSM 33 ng/mL, read-out: JAK-STAT IC50
Protocol: JAK-STAT Signalling Assay
HeLa cells were maintained in Dulbecco's Modified Eagle's Medium (DMEM) containing 10% heat inactivated fetal calf serum, 100 U/mL penicillin and 100 μg/mL streptomycin. HeLa cells were used at 70% confluence for transfection. 20,000 cells in 87 μL cell culture medium were transiently transfected with 40 ng pSTAT1(2)-luciferase reporter (Panomics), 8 ng of LacZ reporter as internal control reporter and 52 ng of pBSK using 0.32 μL Jet-PEI (Polyplus) as transfection reagent per well in 96-well plate format. After overnight incubation at 37° C., 5% CO2, transfection medium was removed. 81 μL of DMEM+1.5% heat inactivated fetal calf serum was added. 9 μL compound at 10× concentration was added for 60 min and then 10 μL of human OSM (Peprotech) at 33 ng/mL final concentration.
After overnight incubation at 37° C., 5% CO2 cells were lysed by adding 100 μL lysis buffer/well (PBS, 0.9 mM CaCl2, 0.5 mM MgCl2, 10% Trehalose, 0.05% Tergitol NP9, 0.3% BSA).
40 μL of cell lysate was used to read β-galactosidase activity by adding 180 μL β-Gal solution (30 μL ONPG 4 mg/mL+150 μL β-Galactosidase buffer (0.06 M Na2HPO4, 0.04 M NaH2PO4, 1 mM MgCl2)) for 20 min.
Luciferase activity was measured using 40 μL cell lysate plus 40 μL of Steadylite as described by the manufacturer (Perkin Elmer), on the Envision (Perkin Elmer).
The positive and negative controls were used to calculate z′ and ‘percent inhibition’ (PIN) values.
Percentage inhibition=((fluorescence determined in the presence of vehicle−fluorescence determined for sample with test compound present)divided by(fluorescence determined in the presence of vehicle−fluorescence determined for sample without trigger))*100.
PIN values were plotted for compounds tested in dose-response and EC50 values were derived.

Row | Compound | IC50 (human JAK1) | IC50 (human JAK3) | IC50 (human TYK2) | IC50 ([1]; Homo sapiens, HeLa) | IC50 [1]
1 | CCc1cc(C2=CCN(C(=O)NC3COC3)CC2)ccc1N(C)c1cc2c(cn1)ncn2C [Compound 215] | 0.01 to 100 nM | 101 to 500 nM | 0.01 to 100 nM | > 1000 nM | –
2 | CCc1cc(-c2cnn(CC)c2)ccc1N(C)c1cc2c(cn1)ncn2C [Compound 241, N-(2-ethyl-4-(1-ethyl-1H-pyrazol-4-yl)phenyl)-N,1-dimethyl-1H-imidazo[4,5-c]pyridin-6-amine] | 0.01 to 100 nM | 101 to 500 nM | 101 to 500 nM | 1 to 500 nM | –
3 | CCc1cc(-c2cnn(CC(N)=O)c2)ccc1N(C)c1cc2c(cn1)ncn2C [Compound 222, 2-(4-(3-Ethyl-4-(methyl(1-methyl-1H-imidazo[4,5-c]pyridin-6-yl)amino)phenyl)-1H-pyrazol-1-yl)acetamide] | 0.01 to 100 nM | 101 to 500 nM | 0.01 to 100 nM | 1 to 500 nM | –
4 | CCc1cc(C2CCN(C(=O)C(C)O)CC2)ccc1N(C)c1cc2c(cn1)ncn2C (stereo not drawn) [Compound 235, 1-(4-(3-ethyl-4-(methyl(1-methyl-1H-imidazo[4,5-c]pyridin-6-yl)amino)phenyl)piperidin-1-yl)-2-hydroxypropan-1-one] | 0.01 to 100 nM | 101 to 500 nM | 0.01 to 100 nM | – | 501 to 1000 nM
5 | CCc1cc(-c2cscn2)ccc1N(C)c1cc2c(cn1)ncn2C [Compound 150, N-(2-ethyl-4-(thiazol-4-yl)phenyl)-N,1-dimethyl-1H-imidazo[4,5-c]pyridin-6-amine] | 0.01 to 100 nM | 101 to 500 nM | 0.01 to 100 nM | 1 to 500 nM | –
6 | CCc1cc(C2=CCN(C(=O)Nc3ncns3)CC2)ccc1N(C)c1cc2c(cn1)ncn2C [Compound 257, 4-(3-Ethyl-4-(methyl(1-methyl-1H-imidazo[4,5-c]pyridin-6-yl)amino)phenyl)-N-(1,2,4-thiadiazol-5-yl)-5,6-dihydropyridine-1(2H)-carboxamide] | 0.01 to 100 nM | 0.01 to 100 nM | 0.01 to 100 nM | 1 to 500 nM | –
7 | CCc1ccccc1N(CC(F)F)c1cc2c(cn1)ncn2C [Compound 284, (2,2-Difluoro-ethyl)-(2-ethyl-phenyl)-(1-methyl-1H-imidazo[4,5-c]pyridin-6-yl)-amine] | 0.01 to 100 nM | 101 to 500 nM | 0.01 to 100 nM | 501 to 1000 nM | –
8 | CCc1cc(C2=CCN(C(=O)C(C)OC)CC2)ccc1N(C)c1cc2c(cn1)ncn2C (stereo not drawn) [Compound 250, 1-(4-(3-ethyl-4-(methyl(1-methyl-1H-imidazo[4,5-c]pyridin-6-yl)amino)phenyl)-5,6-dihydropyridin-1(2H)-yl)-2-methoxypropan-1-one] | 0.01 to 100 nM | 501 to 1000 nM | 0.01 to 100 nM | 1 to 500 nM | –
9 | CCc1cc(OC)ccc1N(C)c1cc2c(cn1)ncn2C [Compound 271, N-(2-ethyl-4-methoxyphenyl)-N,1-dimethyl-1H-imidazo[4,5-c]pyridin-6-amine] | 0.01 to 100 nM | 501 to 1000 nM | 0.01 to 100 nM | 1 to 500 nM | –
10 | CCc1cc(C2CCN(C(=O)CC#N)CC2)ccc1N(C)c1cc2c(cn1)ncn2C [Compound 224, 3-(4-(3-ethyl-4-(methyl(1-methyl-1H-imidazo[4,5-c]pyridin-6-yl)amino)phenyl)piperidin-1-yl)-3-oxopropanenitrile] | 0.01 to 100 nM | 101 to 500 nM | 0.01 to 100 nM | – | 501 to 1000 nM
11 | CCc1cc(C(=O)NCCO)ccc1N(C)c1cc2c(cn1)ncn2C [Compound 160, 3-ethyl-N-(2-hydroxyethyl)-4-(methyl(1-methyl-1H-imidazo[4,5-c]pyridin-6-yl)amino)benzamide] | 0.01 to 100 nM | > 1000 nM | > 1000 nM | > 1000 nM | –
12 | CCc1cc(-c2cnccc2Cl)ccc1N(C)c1cc2c(cn1)ncn2C [Compound 155, N-(4-(4-chloropyridin-3-yl)-2-ethylphenyl)-N,1-dimethyl-1H-imidazo[4,5-c]pyridin-6-amine] | 0.01 to 100 nM | 101 to 500 nM | 0.01 to 100 nM | 501 to 1000 nM | –
13 | CCc1cc(-c2cnn(Cc3ccccc3)c2)ccc1N(C)c1cc2c(cn1)ncn2C [Compound 139, N-(4-(1-benzyl-1H-pyrazol-4-yl)-2-ethylphenyl)-N,1-dimethyl-1H-imidazo[4,5-c]pyridin-6-amine] | 0.01 to 100 nM | 101 to 500 nM | 0.01 to 100 nM | 501 to 1000 nM | –
14 | CCc1cc(-c2cnn(CCN3CCCC3)c2)ccc1N(C)c1cc2c(cn1)ncn2C [Compound 219, N-(2-ethyl-4-(1-(2-(pyrrolidin-1-yl)ethyl)-1H-pyrazol-4-yl)phenyl)-N,1-dimethyl-1H-imidazo[4,5-c]pyridin-6-amine] | 0.01 to 100 nM | > 1000 nM | 0.01 to 100 nM | 1 to 500 nM | –
15 | CCc1cc(CNC(=O)OC)ccc1N(C)c1cc2c(cn1)ncn2C [Compound 191, Methyl 3-ethyl-4-(methyl(1-methyl-1H-imidazo[4,5-c]pyridin-6-yl)amino)benzyl carbamate] | 0.01 to 100 nM | 101 to 500 nM | 101 to 500 nM | 501 to 1000 nM | –
16 | CCc1cc(-c2cnc(C(C)C)nc2)ccc1N(C)c1cc2c(cn1)ncn2C [Compound 140, N-(2-ethyl-4-(2-isopropylpyrimidin-5-yl)phenyl)-N,1-dimethyl-1H-imidazo[4,5-c]pyridin-6-amine] | 0.01 to 100 nM | > 1000 nM | 101 to 500 nM | > 1000 nM | –
17 | CCc1cc(CNC)ccc1N(C)c1cc2c(cn1)ncn2C [Compound 135, N-(2-ethyl-4-((methylamino)methyl)phenyl)-N,1-dimethyl-1H-imidazo[4,5-c]pyridin-6-amine] | 0.01 to 100 nM | > 1000 nM | > 1000 nM | > 1000 nM | –
18 | CCc1cc(-c2cncc(S(C)(=O)=O)c2)ccc1N(C)c1cc2c(cn1)ncn2C [Compound 218, N-(2-ethyl-4-(5-(methylsulfonyl)pyridin-3-yl)phenyl)-N,1-dimethyl-1H-imidazo[4,5-c]pyridin-6-amine] | 0.01 to 100 nM | > 1000 nM | 501 to 1000 nM | > 1000 nM | –
19 | CCc1cc(-c2cncc(C#N)c2)ccc1N(C)c1cc2c(cn1)ncn2C [Compound 189, 5-(3-ethyl-4-(methyl(1-methyl-1H-imidazo[4,5-c]pyridin-6-yl)amino)phenyl)nicotino-nitrile] | 0.01 to 100 nM | > 1000 nM | 101 to 500 nM | > 1000 nM | –
20 | CCc1cc(C(O)C(F)(F)F)ccc1N(C)c1cc2c(cn1)ncn2C (stereo not drawn) [Compound 159, 1-(3-Ethyl-4-(methyl(1-methyl-1H-imidazo[4,5-c]pyridin-6-yl)amino)phenyl)-2,2,2-trifluoroethanol] | 0.01 to 100 nM | 501 to 1000 nM | 101 to 500 nM | > 1000 nM | –
21 | CCc1cc(C2=CCN(S(=O)(=O)CC(F)(F)F)CC2)ccc1N(C)c1cc2c(cn1)ncn2C [Compound 232, N-(2-ethyl-4-(1-(2,2,2-trifluoroethylsulfonyl)-1,2,3,6-tetrahydropyridin-4-yl)phenyl)-N,1-dimethyl-1H-imidazo[4,5-c]pyridin-6-amine] | 0.01 to 100 nM | 0.01 to 100 nM | 0.01 to 100 nM | > 1000 nM | –
